The target in assay [1] is T1, M4 muscarinic receptor (Homo sapiens, UniProt P08173).
T1 construct: expressed in transfected cells; host or cells: CHO (M4-CHO)
T1 sequence (P08173 1-479): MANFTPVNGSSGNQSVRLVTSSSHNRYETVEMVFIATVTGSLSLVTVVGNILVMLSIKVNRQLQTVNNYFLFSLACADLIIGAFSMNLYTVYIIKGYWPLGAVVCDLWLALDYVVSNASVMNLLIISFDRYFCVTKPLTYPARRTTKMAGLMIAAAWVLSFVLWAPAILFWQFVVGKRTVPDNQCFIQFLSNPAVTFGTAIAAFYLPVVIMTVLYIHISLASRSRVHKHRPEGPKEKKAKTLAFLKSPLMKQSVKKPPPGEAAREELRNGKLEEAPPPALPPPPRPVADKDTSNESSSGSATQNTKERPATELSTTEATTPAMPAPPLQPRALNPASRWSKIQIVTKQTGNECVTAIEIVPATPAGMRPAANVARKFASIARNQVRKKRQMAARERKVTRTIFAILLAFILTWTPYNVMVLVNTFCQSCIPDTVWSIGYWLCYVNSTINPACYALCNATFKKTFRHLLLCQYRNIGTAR
The experiment in a line: Functional mobilization of intracellular calcium (FLIPR) in M4-CHO cells. Type of assay: cell-based. Conditions: Table 4; for Emax: 100% efficacy is the maximum response obtained with the Carbachol control; for M4 Activity: M4 receptor, calcium mobilization (FLIPR). The essentials: (§1)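 Intracellular calcium rise is measured by FLIPR fluorescence over 60 sec in CHO cells carrying human M1 or M4 receptors. Compounds are tested alone as agonists, or pre-incubated 15 min (or co-applied) ahead of carbachol at its EC80 to detect inhibition.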
Background: A change in cytosolic calcium serves as a functional read-out for many receptors and channels.

The target in assay [2] is T2, M1 muscarinic receptor (Homo sapiens, UniProt P11229).
T2 construct: expressed in transfected cells; host or cells: CHO (M1-CHO)
T2 sequence (P11229 1-460): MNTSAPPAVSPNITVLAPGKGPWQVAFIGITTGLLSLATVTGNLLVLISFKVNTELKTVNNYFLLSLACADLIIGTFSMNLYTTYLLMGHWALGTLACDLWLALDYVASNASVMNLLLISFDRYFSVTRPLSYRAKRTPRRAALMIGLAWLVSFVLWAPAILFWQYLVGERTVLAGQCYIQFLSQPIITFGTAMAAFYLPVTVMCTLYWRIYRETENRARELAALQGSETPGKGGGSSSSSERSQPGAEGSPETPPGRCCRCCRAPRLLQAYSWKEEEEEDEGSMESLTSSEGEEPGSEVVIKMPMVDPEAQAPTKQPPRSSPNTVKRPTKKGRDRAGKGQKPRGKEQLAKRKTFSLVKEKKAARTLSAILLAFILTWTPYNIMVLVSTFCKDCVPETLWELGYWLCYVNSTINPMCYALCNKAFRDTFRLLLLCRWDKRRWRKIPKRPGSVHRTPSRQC
Description: Functional mobilization of intracellular calcium (FLIPR) in M1-CHO cells. The format is cell-based. Conditions: Table 4; for Emax: 100% efficacy is the maximum response obtained with the Carbachol control; for M1 Activity: M1 receptor, calcium mobilization (FLIPR). The essentials: as §1

Each structure is given as a SMILES string.

The term Emax denotes the greatest response seen or fitted, relative to the assay's reference.

`Cc1ccc2c(c1)/C(=N/O)CC21CCN(CC2C[C@H]3CCC2C3)CC1` (some centres unmarked) [compound 935]: in assay [1], the Emax lay within 25 to 100% and the “M4 Activity” value was “xxx (activity was measured to be less than 2.0 μM)”. Also, in assay [2], the Emax was in the range of 25 to 100% and the “M1 Activity” value is reported as “x (activity was measured to be greater than 5.0 μM)”.

Turning to `COC(=O)N1CCCC(CCN2CCC3(CCC(NC(C)=O)c4ccccc43)CC2)C1` (centres unmarked) [compound 936], in assay [1], the Emax is < 25% and the “M4 Activity” value was “x (activity was measured to be greater than 5.0 μM)”. In addition, in assay [2], the Emax is 25 to 100% and the “M1 Activity” value is recorded as “xxx (activity was measured to be less than 2.0 μM)”.

Turning to `CN(C)C(=O)N1CC2(CCN(C3CCN(C(=O)OCC(F)(F)F)CC3)CC2)c2cc(F)ccc21` [compound 938], in assay [1], the maximal response (Emax) fell in the range of 25 to 100% and the “M4 Activity” value is listed as “xxx (activity was measured to be less than 2.0 μM)”. Besides, in assay [2], the Emax was in the range of 25 to 100% and the “M1 Activity” value is “xxx (activity was measured to be less than 2.0 μM)”.

With `CC#CCOC(=O)N1CC[C@@H](CN2CCC3(CC2)CN(C(=O)N(C)C)c2ccc(F)cc23)C1` [compound 939], in assay [1], the Emax lay in the range of 25 to 100% and the “M4 Activity” value is recorded as “xxx (activity was measured to be less than 2.0 μM)”. Also, in assay [2], the Emax fell in the range of 25 to 100% and the “M1 Activity” value is “xxx (activity was measured to be less than 2.0 μM)”.

`CCOC(=O)N1CC[C@H](CN2CCC3(CC2)CN(C(C)=O)c2cccc(C)c23)C1` [compound 940]: in assay [1], the Emax fell in the range of 25 to 100% and the “M4 Activity” value is on record as “xxx (activity was measured to be less than 2.0 μM)”. In assay [2], the Emax fell in the range of 25 to 100% and the “M1 Activity” value is on record as “xxx (activity was measured to be less than 2.0 μM)”.

Regarding `CCOC(=O)N1CCC(N2CCC3(CC2)CN(c2cccnc2)c2ccc(F)cc23)CC1` [compound 941], in assay [1], the Emax was 25 to 100% and the “M4 Activity” value is recorded as “xxx (activity was measured to be less than 2.0 μM)”. Besides, in assay [2], the Emax lay within 25 to 100% and the “M1 Activity” value is recorded as “xxx (activity was measured to be less than 2.0 μM)”.

Consider `CCOC(=O)N1CCC(N2CCC3(CC2)CN(c2ccc(C)nn2)c2ccc(F)cc23)CC1` [compound 942], for which, in assay [1], the Emax lay in the range of 25 to 100% and the “M4 Activity” value is “xxx (activity was measured to be less than 2.0 μM)”. Also, in assay [2], the Emax is > 100% and the “M1 Activity” value is reported as “xxx (activity was measured to be less than 2.0 μM)”.

With `CC(=O)N1CC2(CCN(C3CCN(c4nc(C)ns4)CC3)CC2)c2cc(F)ccc21` [compound 943], in assay [1], the Emax lay in the range of 25 to 100% and the “M4 Activity” value was “xxx (activity was measured to be less than 2.0 μM)”. For the same compound, in assay [2], the Emax was in the range of 25 to 100% and the “M1 Activity” value is on record as “xxx (activity was measured to be less than 2.0 μM)”.

Take `CCNC(=O)N1CC2(CCN(C3CCN(C(=O)OCC)CC3)CC2)c2ccccc21` [compound 944]: in assay [1], the Emax lay within 25 to 100% and the “M4 Activity” value is “xxx (activity was measured to be less than 2.0 μM)”. Moreover, in assay [2], the Emax is 25 to 100% and the “M1 Activity” value is “xxx (activity was measured to be less than 2.0 μM)”.

Regarding `O=C1CCCN1[C@H]1CCC2(CCN(C3CCCCCC3)CC2)c2ccccc21` [compound 945], in assay [1], the Emax was in the range of 25 to 100% and the “M4 Activity” value was “xxx (activity was measured to be less than 2.0 μM)”. For the same compound, in assay [2], the Emax was in the range of 25 to 100% and the “M1 Activity” value was “xxx (activity was measured to be less than 2.0 μM)”.

Regarding `O=C(N[C@H]1CC2(CCN(CC3CCCCC3)CC2)c2ccccc21)N1CCCC1` [compound 946], in assay [1], the Emax was < 25% and the “M4 Activity” value was “xxx (activity was measured to be less than 2.0 μM)”. Further, in assay [2], the Emax is < 25% and the “M1 Activity” value is reported as “x (activity was measured to be greater than 5.0 μM)”.
